Data published in PubChem BioAssay AID248 (DTP/NCI, 2004).
“And” between values parts separate entries of the source, which are not always exact repeats. Identical values can stand only once. Toxic doses and inconclusive results are not listed. No stated cut-off is given here; in the data, active means T/C of 150% or more; inactive means T/C below 125%.

System: L1210 leukemia ip in BDF1 mice, survival T/C
Experiment: NCI In Vivo Anticancer Drug Screen. Data for tumor model L1210 Leukemia (intraperitoneal) in B6D2F1 (BDF1) mice
Settings: endpoint: mean survival time, higher = longer survival
Method in brief: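 Read-out is survival time, reported as the treated-group measurement over the vehicle-control measurement.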

[1] = dose: 100.0 mg/kg/injection, schedule: Q01DX001 (ip), vehicle: saline
[2] = dose: 200.0 mg/kg/injection, schedule: Q01DX001 (ip), vehicle: saline
[3] = dose: 400.0 mg/kg/injection, schedule: Q01DX001 (ip), vehicle: saline
[4] = dose: 100.0 mg/kg/injection, schedule: Q01DX009 (ip), vehicle: saline with Tween-80
[5] = dose: 100.0 mg/kg/injection, schedule: Q04DX003 (ip), vehicle: Klucel (hydroxypropylcellulose) (HPC)
[6] = dose: 200.0 mg/kg/injection, schedule: Q04DX003 (ip), vehicle: Klucel (hydroxypropylcellulose) (HPC)
[7] = dose: 100.0 mg/kg/injection, schedule: Q04DX002 (ip), vehicle: Klucel (hydroxypropylcellulose) (HPC)
[8] = dose: 200.0 mg/kg/injection, schedule: Q04DX002 (ip), vehicle: Klucel (hydroxypropylcellulose) (HPC)
[9] = dose: 100.0 mg/kg/injection, schedule: Q01DX001 (ip), vehicle: carboxymethylcellulose (CMC)
[10] = dose: 200.0 mg/kg/injection, schedule: Q01DX001 (ip), vehicle: carboxymethylcellulose (CMC)
[11] = dose: 400.0 mg/kg/injection, schedule: Q01DX001 (ip), vehicle: carboxymethylcellulose (CMC)
[12] = dose: 100.0 mg/kg/injection, schedule: Q01DX009 (ip), vehicle: Klucel (hydroxypropylcellulose) (HPC)
[13] = dose: 200.0 mg/kg/injection, schedule: Q01DX009 (ip), vehicle: Klucel (hydroxypropylcellulose) (HPC)
[14] = dose: 400.0 mg/kg/injection, schedule: Q04DX002 (ip), vehicle: Klucel (hydroxypropylcellulose) (HPC)
[15] = dose: 25.0 mg/kg/injection, schedule: Q04DX003 (ip), vehicle: saline with Tween-80
[16] = dose: 100.0 mg/kg/injection, schedule: Q04DX003 (ip), vehicle: saline with Tween-80
[17] = dose: 400.0 mg/kg/injection, schedule: Q04DX003 (ip), vehicle: Klucel (hydroxypropylcellulose) (HPC)

Measured: T/C

CC12CCC3c4ccc(O)cc4CCC3C1CCC2O (stereo unspecified)
inactive: dose: 50.0 mg/kg/injection, schedule: Q01DX001 (sc), vehicle: steriod suspending solution 105 % of control and 111 % of control | dose: 100.0 mg/kg/injection, schedule: Q01DX001 (sc), vehicle: steriod suspending solution 98 % of control and 115 % of control | dose: 200.0 mg/kg/injection, schedule: Q01DX001 (sc), vehicle: steriod suspending solution 98 % of control and 103 % of control | dose: 400.0 mg/kg/injection, schedule: Q01DX001 (sc), vehicle: steriod suspending solution 101 % of control and 109 % of control

O=C(c1ccccc1)c1cc(CN(C2CCCCC2)C2CCCCC2)c(O)cc1O
inactive: [1] 90 % of control | [2] 91 % of control | [3] 96 % of control

O=c1cc(CO)oc(C(Nc2ccccc2)c2ccccc2)c1O (stereo unspecified)
inactive: [1] 91 % of control | [2] 97 % of control | [3] 95 % of control

CN(C)C(=S)NCc1ccccc1
inactive: [4] 95 % of control | dose: 200.0 mg/kg/injection, schedule: Q01DX009 (ip), vehicle: saline with Tween-80 101 % of control

O=C1NC(=O)C(c2ccccc2)(C2CC2)N1 (stereo unspecified)
inactive: dose: 50.0 mg/kg/injection, schedule: Q04DX003 (ip), vehicle: Klucel (hydroxypropylcellulose) (HPC) 107 % of control | [1] 93 % of control | [5] 95 % of control | [2] 93 % of control | [6] 101 % of control | [3] 98 % of control

NC(=O)COc1ccc2ccccc2c1Cl
inactive: [7] 96 % of control | [8] 89 % of control

O=C1CCCC/C1=C\Sc1ccccc1
inactive: dose: 100.0 mg/kg/injection, schedule: Q04DX002 (ip), vehicle: saline 95 % of control | dose: 200.0 mg/kg/injection, schedule: Q04DX002 (ip), vehicle: saline 98 % of control | dose: 400.0 mg/kg/injection, schedule: Q04DX002 (ip), vehicle: saline 88 % of control

O=C(OCCBr)Oc1cccc2ccccc12
inactive: [9] 98 % of control | [10] 93 % of control | [11] 95 % of control

Cc1ccc(NC(=O)NCCCl)cc1NC(=O)NCCCl
inactive: dose: 50.0 mg/kg/injection, schedule: Q01DX009 (ip), vehicle: Klucel (hydroxypropylcellulose) (HPC) 106 % of control | [12] 97 % of control | [5] 94 % of control | [13] 108 % of control | [6] 95 % of control

CCOC(=O)Nc1nc2nc[nH]c2c(NC(c2ccccc2)c2ccccc2)c1Br
inactive: [7] 91 % of control | [8] 91 % of control | [14] 86 % of control

CC12CCC3c4ccc(Cc5ccc([N+](=O)[O-])cc5)cc4CCC3C1CCC2=O (stereo unspecified)
inactive: dose: 50.0 mg/kg/injection, schedule: Q01DX001 (ip), vehicle: saline 105 % of control | [1] 100 % of control | [2] 100 % of control | [3] 105 % of control

CCCCN(CCCC)CC(C)O (stereo unspecified)
inactive: dose: 25.0 mg/kg/injection, schedule: Q01DX009 (ip), vehicle: saline with Tween-80 101 % of control | [15] 104 % of control | dose: 50.0 mg/kg/injection, schedule: Q01DX009 (ip), vehicle: saline with Tween-80 95 % of control | dose: 50.0 mg/kg/injection, schedule: Q04DX003 (ip), vehicle: saline with Tween-80 96 % of control | [4] 104 % of control | [16] 98 % of control and 101 % of control

Cc1cc(N(CCCCl)CCCCl)ccc1C=Nc1cc(Cl)c(O)c(Cl)c1
inactive: [5] 104 % of control | [6] 98 % of control | [17] 101 % of control

COc1ccc(-n2c(O)c(N=Nc3ccccc3OC)c(=O)n(-c3ccccc3)c2=S)cc1
inactive: dose: 50.0 mg/kg/injection, schedule: Q01DX001 (ip), vehicle: Klucel (hydroxypropylcellulose) (HPC) 94 % of control | dose: 100.0 mg/kg/injection, schedule: Q01DX001 (ip), vehicle: Klucel (hydroxypropylcellulose) (HPC) 92 % of control | dose: 200.0 mg/kg/injection, schedule: Q01DX001 (ip), vehicle: Klucel (hydroxypropylcellulose) (HPC) 92 % of control

CCCCCCCCCCCCCCNCCC(=O)O
inactive: dose: 37.5 mg/kg/injection, schedule: Q04DX003 (ip), vehicle: saline 102 % of control | dose: 75.0 mg/kg/injection, schedule: Q04DX003 (ip), vehicle: saline 101 % of control | dose: 150.0 mg/kg/injection, schedule: Q04DX003 (ip), vehicle: saline 102 % of control

O=C(O)Cc1cccc(C(=O)O)c1
inactive: [1] 103 % of control | [2] 104 % of control | [3] 115 % of control

O=[As](O)(O)CCCc1ccccc1
inactive: dose: 6.25 mg/kg/injection, schedule: Q01DX009 (ip), vehicle: Klucel (hydroxypropylcellulose) (HPC) 108 % of control | dose: 12.5 mg/kg/injection, schedule: Q01DX009 (ip), vehicle: Klucel (hydroxypropylcellulose) (HPC) 108 % of control

COc1cc(C(C)S(=O)(=O)c2ccc(C)cc2)ccc1O (stereo unspecified)
inactive: [9] 89 % of control | [10] 93 % of control | [11] 93 % of control

O=C1c2ccccc2C(=O)N1CNc1ccccc1
inactive: [12] 103 % of control | [5] 104 % of control | [13] 98 % of control | [6] 102 % of control | dose: 400.0 mg/kg/injection, schedule: Q01DX009 (ip), vehicle: Klucel (hydroxypropylcellulose) (HPC) 93 % of control | [17] 94 % of control

Nc1ncnc(N)c1NC(=O)c1cccc(Br)c1
inactive: dose: 6.25 mg/kg/injection, schedule: Q04DX003 (ip), vehicle: saline with Tween-80 96 % of control | dose: 12.5 mg/kg/injection, schedule: Q04DX003 (ip), vehicle: saline with Tween-80 96 % of control | [15] 100 % of control and 103 % of control

O=C(Nc1ccc(S(=O)(=O)O)c2ccccc12)c1ccc(C(=O)Nc2ccc(S(=O)(=O)O)c3ccccc23)cc1
inactive: dose: 62.5 mg/kg/injection, schedule: Q01DX Z (ip), vehicle: carboxymethylcellulose (CMC) 92 % of control | dose: 125.0 mg/kg/injection, schedule: Q01DX Z (ip), vehicle: carboxymethylcellulose (CMC) 89 % of control | dose: 250.0 mg/kg/injection, schedule: Q01DX Z (ip), vehicle: carboxymethylcellulose (CMC) 90 % of control | dose: 500.0 mg/kg/injection, schedule: Q01DX Z (ip), vehicle: carboxymethylcellulose (CMC) 89 % of control

Oc1ccc(Nc2ccccc2)cc1
inactive: [1] 92 % of control | dose: 100.0 mg/kg/injection, schedule: Q04DX003 (ip), vehicle: saline 101 % of control | [2] 110 % of control | dose: 200.0 mg/kg/injection, schedule: Q04DX003 (ip), vehicle: saline 101 % of control | [3] 105 % of control | dose: 400.0 mg/kg/injection, schedule: Q04DX003 (ip), vehicle: saline 95 % of control

Cc1ccc(N=Nc2sc(N)nc2C)cc1
inactive: dose: 75.0 mg/kg/injection, schedule: Q01DX001 (ip), vehicle: saline 97 % of control | dose: 150.0 mg/kg/injection, schedule: Q01DX001 (ip), vehicle: saline 102 % of control

CN(C)CCCN=Cc1cc([N+](=O)[O-])ccc1O.CN(C)CCCN=Cc1cc([N+](=O)[O-])ccc1O.[Ni+2]
inactive: [16] 91 % of control

NC(=O)N/N=C/C(=O)O
inactive: [7] 96 % of control | [8] 104 % of control | [14] 104 % of control
